Assay results: ChEMBL document CHEMBL1129947, “(+)-7-Deaza-5'-noraristeromycin as an anti-trypanosomal agent” (J Med Chem, 1997)

How the values were obtained:
[1] = target: Adenosylhomocysteinase (Mus musculus, UniProt P50247); assay: In vitro inhibitory concentration against purified S-Adenosyl-homocysteine hydrolase isolated from murine L929 cells
[2] = test system: Trypanosoma brucei; assay: In vitro inhibitory concentration against Trypanosoma brucei LAB 110 EATRO test strain; format: functional, organism-based
[3] = test system: Trypanosoma brucei; assay: In vitro inhibitory concentration against Trypanosoma brucei rhodesiense strain KETRI 243; format: functional, organism-based
[4] = test system: Trypanosoma brucei; assay: In vitro inhibitory concentration against Trypanosoma brucei rhodesiense strain KETRI 243-As-103; format: functional, organism-based
[5] = test system: Trypanosoma brucei; assay: In vitro inhibitory concentration against Trypanosoma brucei rhodesiense strain KETRI 269; format: functional, organism-based

Chain of Adenosylhomocysteinase (P50247 whole entry): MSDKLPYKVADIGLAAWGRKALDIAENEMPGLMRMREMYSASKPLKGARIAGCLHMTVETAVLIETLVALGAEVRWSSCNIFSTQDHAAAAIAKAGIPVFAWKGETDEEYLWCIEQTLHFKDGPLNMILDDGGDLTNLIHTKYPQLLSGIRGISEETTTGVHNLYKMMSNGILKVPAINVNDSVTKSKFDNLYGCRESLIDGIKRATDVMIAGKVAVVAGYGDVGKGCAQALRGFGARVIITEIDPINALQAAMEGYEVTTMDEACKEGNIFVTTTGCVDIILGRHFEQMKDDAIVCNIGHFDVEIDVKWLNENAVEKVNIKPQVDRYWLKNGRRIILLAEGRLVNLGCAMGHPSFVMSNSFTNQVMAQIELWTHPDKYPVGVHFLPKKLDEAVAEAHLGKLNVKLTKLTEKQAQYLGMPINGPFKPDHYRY

Row | Compound | IC50 [1] | IC50 [2] | IC50 [3] | IC50 [4] | IC50 [5]
1 | Nc1ncnc2c1ccn2[C@H]1C[C@@H](O)[C@H](O)[C@@H]1O | > 500000 nM | 165 nM | 165 nM | 5300 nM | 165 nM
2 | Nc1ncnc2c1ccn2[C@@H]1C[C@H](O)[C@@H](O)[C@H]1O | > 500000 nM |  |  |  | 
